Reference: patent US10064832B2, “Kartogenin-conjugated chitosan particles with improved sustained release property and biocombatibility, and use thereof” (priority 2014, dated 2018)

System: osteoarthritis model rats
Test: Osteoarthritis regeneration after intra-articular injection in osteoarthritis animal model
Type: in vivo
Conditions: injected into knee joints at 6 and 9 weeks after surgery, euthanized at 14 weeks
Description: The rats were euthanized at 14 weeks, and joint tissues were separated and fixed in 10% paraformaldehyde, and then treated with 6% nitric acid for to decalcification. The tissues were embedded in a Tissue-Tek O.C.T. compound (Sakura Finetek Japan Co., Ltd.), sectioned to 10 μm and attached to a slide glass, and thereafter, staining with Safranin-O/fast green and immunofluorescence of collagen type II (COL2A1) and aggrecan were performed.

O=C(O)c1ccccc1C(=O)Nc1ccc(-c2ccccc2)cc1 [kartogenin]
COL2 protein (immunofluorescent staining): noticeable reduction | aggrecan protein (immunofluorescent staining): noticeable reduction | cartilage histology (Safranin-O/fast green): weak vertical matrix cracks in a deep area of cartilage and loss and surface peeling of cartilage
